In patent publication US10670605B2, “Cysteine reactive probes and uses thereof” (The Scripps Research Institute, priority 2015, dated 2020):

Assays:
Assay in all cases: Competitive isoTOP-ABPP, cell lysates
Format in all cases: binding
PELI1 C282 (Q96FA3) = target: T1, PELI1 C282 (Q96FA3) (Homo sapiens, UniProt Q96FA3); details: for isoTOP-ABPP reactivity profile ratio, Q96FA3_C282 / isoTOP-ABPP reactivity ratio, Q96FA3_C282: 500 μm, in-vitro_ramos; for isoTOP-ABPP ratio (reactivity profile), Q96FA3_C282: 500 μm in-vitro ramos
T1 sequence (Q96FA3 1-418): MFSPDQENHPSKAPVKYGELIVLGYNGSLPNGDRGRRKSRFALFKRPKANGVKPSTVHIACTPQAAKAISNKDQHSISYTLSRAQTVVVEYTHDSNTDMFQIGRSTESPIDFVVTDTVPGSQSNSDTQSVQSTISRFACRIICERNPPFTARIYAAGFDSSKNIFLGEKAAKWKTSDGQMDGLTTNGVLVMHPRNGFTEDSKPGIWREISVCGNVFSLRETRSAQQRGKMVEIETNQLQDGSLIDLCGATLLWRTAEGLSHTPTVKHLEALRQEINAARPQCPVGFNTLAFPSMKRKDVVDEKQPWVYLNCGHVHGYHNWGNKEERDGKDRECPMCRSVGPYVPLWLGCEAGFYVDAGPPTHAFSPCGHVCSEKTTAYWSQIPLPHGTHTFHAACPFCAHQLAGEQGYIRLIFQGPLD

UBA7 C599 (P41226) = target: T2, UBA7 C599 (P41226) (Homo sapiens, UniProt P41226)
T2 sequence (P41226 1-1012): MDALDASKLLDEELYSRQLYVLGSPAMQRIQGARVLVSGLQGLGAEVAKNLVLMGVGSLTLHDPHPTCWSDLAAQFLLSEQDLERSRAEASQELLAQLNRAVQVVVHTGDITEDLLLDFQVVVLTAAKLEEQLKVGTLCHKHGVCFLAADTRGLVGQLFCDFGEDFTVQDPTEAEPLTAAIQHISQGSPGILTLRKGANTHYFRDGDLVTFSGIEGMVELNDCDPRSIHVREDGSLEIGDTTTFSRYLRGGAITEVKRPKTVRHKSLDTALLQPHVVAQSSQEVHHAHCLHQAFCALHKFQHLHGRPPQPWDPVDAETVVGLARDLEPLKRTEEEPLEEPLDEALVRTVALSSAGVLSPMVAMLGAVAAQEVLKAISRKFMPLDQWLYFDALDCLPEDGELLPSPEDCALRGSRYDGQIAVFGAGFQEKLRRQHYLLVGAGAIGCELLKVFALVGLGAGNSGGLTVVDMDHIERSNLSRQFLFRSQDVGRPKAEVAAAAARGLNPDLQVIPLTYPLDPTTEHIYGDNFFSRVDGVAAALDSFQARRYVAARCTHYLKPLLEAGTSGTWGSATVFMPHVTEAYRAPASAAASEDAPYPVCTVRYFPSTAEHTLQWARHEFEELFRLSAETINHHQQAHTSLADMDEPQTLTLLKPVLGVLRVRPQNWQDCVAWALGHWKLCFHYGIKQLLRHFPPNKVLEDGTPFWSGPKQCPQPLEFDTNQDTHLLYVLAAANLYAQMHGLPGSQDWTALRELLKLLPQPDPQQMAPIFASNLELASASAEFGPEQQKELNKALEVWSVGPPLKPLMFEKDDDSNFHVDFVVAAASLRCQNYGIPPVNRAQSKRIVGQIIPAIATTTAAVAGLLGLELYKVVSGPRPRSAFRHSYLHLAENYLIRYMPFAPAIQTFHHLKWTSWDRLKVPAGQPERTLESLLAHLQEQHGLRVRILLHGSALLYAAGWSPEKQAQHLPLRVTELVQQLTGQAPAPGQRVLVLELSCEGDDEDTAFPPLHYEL

NCF1 C378 (P14598) = target: T3, NCF1 C378 (P14598) (Homo sapiens, UniProt P14598)
T3 sequence (P14598 1-390): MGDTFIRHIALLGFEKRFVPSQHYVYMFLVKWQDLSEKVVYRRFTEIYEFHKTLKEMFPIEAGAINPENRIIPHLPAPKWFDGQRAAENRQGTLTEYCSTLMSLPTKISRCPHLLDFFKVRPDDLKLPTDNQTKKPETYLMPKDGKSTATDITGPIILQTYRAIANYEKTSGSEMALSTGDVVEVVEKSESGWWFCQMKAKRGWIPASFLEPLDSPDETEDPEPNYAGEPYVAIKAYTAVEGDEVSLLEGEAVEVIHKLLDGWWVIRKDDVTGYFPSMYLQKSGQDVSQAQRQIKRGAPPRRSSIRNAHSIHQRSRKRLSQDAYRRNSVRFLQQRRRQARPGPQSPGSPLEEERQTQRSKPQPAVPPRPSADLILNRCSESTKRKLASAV

N#CC(=Cc1ccc(-c2ccccc2Cl)o1)C(N)=O [compound 42]
isoTOP-ABPP reactivity profile ratio, Q96FA3_C282 (PELI1 C282 (Q96FA3)): 1.2

COc1ccccc1OCCNC(=O)CCl [compound 28]
isoTOP-ABPP ratio (reactivity profile), Q96FA3_C282 (PELI1 C282 (Q96FA3)): 0.7

O=C(CCl)N1CCC(C(O)(c2ccccc2)c2ccccc2)CC1 [compound 20]
isoTOP-ABPP ratio (reactivity profile), P41226_C599 (UBA7 C599 (P41226); 500 μm in-vitro ramos): 12.2 | isoTOP-ABPP ratio (reactivity profile), P41226_C599 (UBA7 C599 (P41226); 500 μm in-vitro ramos_231): 1.1

COc1cc(NC(=O)CCl)cc(OC)c1 [compound 43]
isoTOP-ABPP reactivity profile ratio, P14598_C378 (NCF1 C378 (P14598); 500 μm, in-vitro_ramos): 1.2

O=C(CCl)NCCc1c[nH]c2ccccc12 [compound 13]
isoTOP-ABPP ratio, P14598_C378 (NCF1 C378 (P14598); 500 μM, invitro, ramos): 0.7

COc1ccc(C2CC(c3cccs3)=NN2C(=O)CCl)cc1 (stereo not shown) [compound 4]
R value (DMSO/fragment) (NCF1 C378 (P14598); 250 μM, in vitro, Ramos): 1.4 | R value (DMSO/fragment) (UBA7 C599 (P41226); 250 μM, in vitro, Ramos): 20.0

O=C(CCl)Nc1ccc(-c2ccccc2)cc1 [compound 52]
isoTOP-ABPP reactivity profile ratio, Q96FA3_C282 (PELI1 C282 (Q96FA3)): 20.0

O=C(CCl)NC12CC3CC(CC(C3)C1)C2 [compound 21]
isoTOP-ABPP ratio (reactivity profile), P41226_C599 (UBA7 C599 (P41226); 500 μm in-vitro ramos): 2.5

O=C(/C=C/c1ccccc1)Nc1cc(C(F)(F)F)cc(C(F)(F)F)c1 [compound 26]
isoTOP-ABPP ratio (reactivity profile), Q96FA3_C282 (PELI1 C282 (Q96FA3)): 0.5

Cn1cc(S(=O)(=O)N2CCOCC2)cc1C(=O)NC(=O)CCl [compound 11]
isoTOP-ABPP ratio, P41226_C599 (UBA7 C599 (P41226); 500 μM, invitro, ramos): 1.9

C=CC(=O)Nc1cc(F)c(N2CCN(C(=O)OC(C)(C)C)CC2)c(F)c1 [compound 38]
isoTOP-ABPP reactivity ratio, Q96FA3_C282 (PELI1 C282 (Q96FA3)): 7.0

O=C(CCl)Nc1cc(C(F)(F)F)cc(C(F)(F)F)c1 [compound 3]
R value (DMSO/fragment) (NCF1 C378 (P14598); 500 μM, invitro, ramos): 2.1

C=CC(=O)N(c1ccccc1)c1ccc(Br)cc1 [compound 5]
isoTOP-ABPP ratio, P14598_C378 (NCF1 C378 (P14598); 500 μM, invitro, ramos): 4.0

COc1ccc2c(c1)CCCN2C(=O)CCl [compound 2]
R value (DMSO/fragment) (NCF1 C378 (P14598); 500 μM, invitro, ramos): 4.4

CCN(CC)c1ccc(S(N)(=O)=O)cc1NC(=O)CCl [compound 30]
isoTOP-ABPP reactivity ratio, Q96FA3_C282 (PELI1 C282 (Q96FA3)): 1.5

N#C/C(=C\c1cc(C(F)(F)F)cc(C(F)(F)F)c1)C(N)=O [compound 23]
isoTOP-ABPP ratio (reactivity profile), P41226_C599 (UBA7 C599 (P41226); 500 μm in-vitro ramos): 3.2

CC(C)CCOCCNC(=O)CCl [compound 27]
isoTOP-ABPP ratio (reactivity profile), P41226_C599 (UBA7 C599 (P41226); 500 μm in-vitro ramos): 1.3 | isoTOP-ABPP ratio (reactivity profile), P41226_C599 (UBA7 C599 (P41226); 500 μm in-vitro ramos_231): 0.7

O=C(CCl)Nc1ccccc1C1CCCCCC1 [compound 35]
isoTOP-ABPP reactivity ratio, P41226_C599 (UBA7 C599 (P41226); 500 μm, in-vitro_ramos): 1.2

O=C(CCl)N1CCN(S(=O)(=O)c2ccccc2F)CC1 [compound 10]
isoTOP-ABPP ratio, P14598_C378 (NCF1 C378 (P14598); 500 μM, invitro, ramos): 1.1
